Consider 22 compounds from ChEMBL document CHEMBL1132438, “Heterodimeric tacrine-based acetylcholinesterase inhibitors: investigating ligand-peripheral site interactions” (J Med Chem, 1999).

The structures appear in SMILES notation.

The target in assay [1] is Butyrylcholinesterase (Rattus norvegicus, UniProt Q9JKC1).
Description: Inhibition of rat serum butyrylcholinesterase, in the presence of a specific AChE inhibitor; BW284c51
Assay [2] addresses T1, Acetylcholinesterase (Rattus norvegicus, UniProt P37136).
T1 sequence (P37136 whole entry): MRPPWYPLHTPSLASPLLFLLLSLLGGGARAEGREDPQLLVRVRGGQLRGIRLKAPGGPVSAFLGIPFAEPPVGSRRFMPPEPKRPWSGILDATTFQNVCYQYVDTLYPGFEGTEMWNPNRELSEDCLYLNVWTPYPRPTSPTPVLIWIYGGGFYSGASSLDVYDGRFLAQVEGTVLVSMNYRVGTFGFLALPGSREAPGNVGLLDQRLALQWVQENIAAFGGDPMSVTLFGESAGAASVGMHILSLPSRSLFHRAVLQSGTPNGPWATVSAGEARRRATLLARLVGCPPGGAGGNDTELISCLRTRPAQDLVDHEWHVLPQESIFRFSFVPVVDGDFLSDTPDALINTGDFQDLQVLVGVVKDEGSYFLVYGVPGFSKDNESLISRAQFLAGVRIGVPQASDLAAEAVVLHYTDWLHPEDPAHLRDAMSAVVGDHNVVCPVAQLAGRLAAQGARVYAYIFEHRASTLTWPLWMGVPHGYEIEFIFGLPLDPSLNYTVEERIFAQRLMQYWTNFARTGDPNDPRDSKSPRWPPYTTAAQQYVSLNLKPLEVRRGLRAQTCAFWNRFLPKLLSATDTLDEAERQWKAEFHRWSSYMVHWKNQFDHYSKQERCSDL
The experiment in a line: biochemical.
Description: Inhibition of acetylcholinesterase activity in rat cerebral cortex homogenate, in the presence of a specific butyrylcholinesterase (BChE) inhibitor; ethopropazine

Broadly, the IC50 is the concentration that inhibits the measured activity by half. Low readings indicate higher potency, high ones lower potency.

Chain of Butyrylcholinesterase (Q9JKC1 whole entry): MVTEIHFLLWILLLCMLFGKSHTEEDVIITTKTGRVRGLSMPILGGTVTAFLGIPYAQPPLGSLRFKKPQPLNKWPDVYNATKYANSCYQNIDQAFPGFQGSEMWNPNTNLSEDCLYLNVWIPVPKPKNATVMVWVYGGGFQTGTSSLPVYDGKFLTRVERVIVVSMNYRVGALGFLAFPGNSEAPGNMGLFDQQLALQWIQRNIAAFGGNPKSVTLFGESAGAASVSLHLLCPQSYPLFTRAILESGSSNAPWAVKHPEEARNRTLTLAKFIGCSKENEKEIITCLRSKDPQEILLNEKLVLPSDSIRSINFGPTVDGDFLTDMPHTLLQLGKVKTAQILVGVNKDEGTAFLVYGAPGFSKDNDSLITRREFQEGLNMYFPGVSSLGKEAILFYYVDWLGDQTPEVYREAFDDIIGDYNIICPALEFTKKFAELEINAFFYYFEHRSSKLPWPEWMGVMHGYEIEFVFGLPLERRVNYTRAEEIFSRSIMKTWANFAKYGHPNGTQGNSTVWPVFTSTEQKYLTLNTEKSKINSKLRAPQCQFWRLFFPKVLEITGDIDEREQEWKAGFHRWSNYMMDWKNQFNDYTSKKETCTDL

Take `Cc1cccc2c(NCCCCCCCCNc3c4c(nc5ccccc35)CCCC4)c3c(nc12)CCCC3`: the IC50 in assay [1] turned out to be 105 nM; in assay [2], 7.8 nM. `Nc1ccncc1` [DALFAMPRIDINE] registered an IC50 in assay [2] above 500000 nM. Consider `CN(C)CCCCCCCCCCNc1c2c(nc3ccccc13)CCCC2`, for which the figures for the IC50 in assay [1] and in assay [2] were 581 nM and 45 nM, respectively. For `c1ccc2c(NCCCCCCCCCNc3c4c(nc5ccccc35)CCCC4)ccnc2c1` the same measures were 156 nM and 38.7 nM.

`NCCCCCCCCCCCCNc1c2c(nc3ccccc13)CCCC2`: the IC50 in assay [1] turned out to be 791 nM; in assay [2] it was 180 nM. Take `c1ccc2c(NCCCCCCCCCNc3ccncc3)c3c(nc2c1)CCCC3`: the IC50 in assay [1] was determined as 200 nM; in assay [2], 83.6 nM. As for `Cc1cccc2c(NCCCCCCCNc3c4c(nc5ccccc35)CCCC4)c3c(nc12)CCCC3`, it took 1.5 nM to reach half-maximal inhibition in assay [2] (IC50).

Take `NCCCCCCCCCCNc1c2c(nc3ccccc13)CCCC2`: the IC50 in assay [1] amounted to 682 nM; in assay [2] it was 147 nM. For `c1ccc2c(NCCCCCCCNc3ccncc3)c3c(nc2c1)CCCC3` the same measures were 302 nM and 12.8 nM. For `c1ccc2c(NCCCCCCCCNc3ccncc3)c3c(nc2c1)CCCC3` the same measures were 157 nM and 13.6 nM.

For the compound `NCCCCCCCCCNc1c2c(nc3ccccc13)CCCC2`, the IC50 in assay [1] turned out to be 687 nM; in assay [2], 131 nM.

As to `c1ccc2c(NCCCCCCCCCCNc3ccncc3)c3c(nc2c1)CCCC3`, the IC50 in assay [1] was 427 nM; in assay [2], 176 nM. In the case of `Nc1ccnc2ccccc12` [QUINOLIN-4-AMINE], it took 50700 nM to reach half-maximal inhibition in assay [2] (IC50). As to `CN(C)CCCCCCCCCCCCNc1c2c(nc3ccccc13)CCCC2`, the IC50 in assay [1] was 695 nM; in assay [2] it was 264 nM. For `c1ccc2c(NCCCCCCCNc3c4c(nc5ccccc35)CCCC4)ccnc2c1` the same measures were 110 nM and 10.1 nM. For `c1ccc2c(NCCCCCCCCCCCCNc3ccncc3)c3c(nc2c1)CCCC3` the same measures were 377 nM and 261 nM. On to `NCCCCCCCCNc1c2c(nc3ccccc13)CCCC2`, for which the results for the IC50 in assay [1] and in assay [2] were 202 nM and 89.4 nM, respectively. On to `CN(C)CCCCCCCNc1c2c(nc3ccccc13)CCCC2`, for which the figures for the IC50 in assay [1] and in assay [2] were 143 nM and 52 nM, respectively.

For the compound `CN(C)CCCCCCCCNc1c2c(nc3ccccc13)CCCC2`, the IC50 stood at 170 nM in assay [1] and 47 nM in assay [2].

Consider `CN(C)CCCCCCCCCNc1c2c(nc3ccccc13)CCCC2`, for which the IC50 turned out to be 237 nM in assay [1] and 71 nM in assay [2]. For `NCCCCCCCNc1c2c(nc3ccccc13)CCCC2` the same measures were 357 nM and 319 nM.

As to `c1ccc2c(NCCCCCCCCNc3c4c(nc5ccccc35)CCCC4)ccnc2c1`, the IC50 was 126 nM in assay [1] and 8.8 nM in assay [2].
